Results reported in patent publication US8884013B2, “Polymorphs of Dasatinib, preparation methods and pharmaceutical compositions thereof” (Nan Jing Cavendish Bio-Engineering Technology Co., Ltd., priority 2010, dated 2014).

Test: Comparative test on stability: destruction experiment, related substances by HPLC
Type: physicochemical
Experimental: The methods of destruction experiment of the Polymorph I and II of this invention (hereinafter referred to as ‘Polymorph I’ and ‘Polymorph II’) contrasting with the Polymorph A of Dasatinib prepared by the method in CN200580011916.6 (hereinafter referred to as ‘916.6 Polymorph A’) and results of stability are followed:
Oxidation destruction: 50 mg of sample weighted accurately was added into measuring flask of 100 mL, and 10 mL 30% H2O2 was added. After standing at room temperature for 2 hour, the mixture was diluted with mobile phase to scale and shook to be homogeneous, and determined by HPLC.
(§1) Acid destruction: 50 mg of sample weighted accurately was added into measuring flask of 100 mL, and 10 mL 1 mol/L HCl solution was added. After standing at 40° C. for 1 hour, an equal amount of 1 mol/L NaOH solution was added for neutralization. Then the mixture was diluted with mobile phase to scale and shook to be homogeneous, and determined by HPLC.
as §1, with “Alkali” for “Acid”, “NaOH” for “HCl”, “HCl” for “NaOH”
Illumination destruction: 50 mg of sample weighted accurately was added into measuring flask of 100 mL, dissolved and diluted with mobile phase to be the solution containing 0.5 mg Dasatinib per milliliter. After standing under illumination of 4000 lx for 6 hour, the mixture was determined by HPLC.
High temperature destruction: 50 mg of sample weighted accurately was added into measuring flask of 100 mL, dissolved and diluted with mobile phase to be the solution containing 0.5 mg Dasatinib per milliliter. After standing in homothermal water bath of 60° C. for 4 hour, the mixture was cooled and then determined by HPLC.
Related Substances Determination
HPLC conditions and system applicability: octadecylsilane bonded silica as the filler; 0.05 mol/L of potassium dihydrogen phosphate (adjusted to pH 2.5 by phosphoric acid, 0.2% triethylamine)-methanol (45:55) as the mobile phase; detection wavelength was 230 nm; the number of theoretical plates should be not less than 2000, calculated according to the peak of Dasatinib. The resolution of the peak of Dasatinib from the peaks of adjacent impurities should meet requirements.
Determination method: sample was dissolved in mobile phase to be the solution containing 0.5 mg per milliliter. 20 μL of such solution was injected into liquid chromatograph, and chromatogram was recorded until the sixfold retention time of major component peak. If there were impurities peaks in the chromatogram of sample solution, total impurities and any single impurity were calculated by normalization method on the basis of peak area.

## Cc1nc(Nc2ncc(C(=O)Nc3c(C)cccc3Cl)s2)cc(N2CCN(CCO)CC2)n1 [916.6 Polymorph A, N-(2-chloro-6-methylphenyl)-2-[[6-[4-(2-hydroxyethyl)-1-piperazinyl]-2-methyl-4-pyrimidyl]amino]-5-thiazolformamide, reference compound]
  Stability by comparison with Polymorph I: worse performance in stability
1 mol/L acid destruction
  Impurity tR3.580: 0.01%
  Impurity tR4.106: 0.02%
  Impurity tR5.001: 0.02%
1 mol/L acid destruction (HCl, 40° C., 1 hour)
  Total impurities: 0.06%
1 mol/L alkali destruction
  Impurity tR4.107: 0.01%
  Impurity tR5.007: 0.03%
  Impurity tR5.351: 0.03%
  Impurity tR8.943: 0.01%
1 mol/L alkali destruction (NaOH, 40° C., 1 hour)
  Total impurities: 0.11%
Before destruction
  Impurity tR4.135: 0.02%
  Impurity tR5.092: 0.02%
  Impurity tR5.523: 0.03%
  Total impurities: 0.07%
High temperature destruction
  Impurity tR4.118: 0.02%
  Impurity tR5.081: 0.03%
  Impurity tR5.502: 0.03%
High temperature destruction (60° C. water bath, 4 hour, in solution)
  Total impurities: 0.08%
Illumination destruction
  Impurity tR2.456: 0.30%
  Impurity tR3.732: 0.14%
  Impurity tR4.589: 0.11%
  Impurity tR5.088: 0.06%
  Impurity tR5.503: 0.19%
  Impurity tR10.095: 0.82%
Illumination destruction (4000 lx, 6 hour, in solution)
  Total impurities: 1.89%
Oxidation destruction
  Impurity tR4.123: 0.01%
  Impurity tR4.584: 0.02%
  Impurity tR5.089: 0.02%
  Impurity tR5.504: 0.05%
  Impurity tR9.450: 2.30%
Oxidation destruction (30% H2O2, room temperature, 2 hour)
  Total impurities: 2.41%
